These results are taken from paper PMC8760490, “Discovery of novel furanylbenzamide inhibitors that target oncogenic tyrosine phosphatase SHP2 in leukemia cells” (The Journal of Biological Chemistry, 2021).

One may read the IC50 as the concentration needed to halve the response being measured. Low values mean inhibition by little substance, high ones a need for much substance.

The target of the test is T1, PTP1B (1–300) catalytic domain (Homo sapiens, UniProt P18031).
T1 construct: Recombinant human PTP1B (1–300); His tag (pET-15b) (N); made in house; host or cells: E. coli BL21(DE3)
T1 sequence (P18031 1-300): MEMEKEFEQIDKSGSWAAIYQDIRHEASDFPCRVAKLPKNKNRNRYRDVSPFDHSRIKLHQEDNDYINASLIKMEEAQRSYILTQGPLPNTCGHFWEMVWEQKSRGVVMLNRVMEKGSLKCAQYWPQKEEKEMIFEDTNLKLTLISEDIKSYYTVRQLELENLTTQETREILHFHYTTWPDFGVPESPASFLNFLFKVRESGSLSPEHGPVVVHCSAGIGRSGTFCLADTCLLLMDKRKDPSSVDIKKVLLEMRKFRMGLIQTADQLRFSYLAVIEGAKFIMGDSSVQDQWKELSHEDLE
Nature of the test: DiFMUP phosphatase inhibition assay, PTP1B. The class given is biochemical. The settings on record: for IC50: catalytic domain, DiFMUP at Km (25 μM); for selectivity for SHP2 over PTP1B: from IC50 values against catalytic domains. On the procedure: Selectivity is one of the biggest challenges in PTP inhibitor development. […] Similar to SHP2, we adapted a 384-well plate format DiFMUP assay for recombinant PTP1B and STEP and performed Michaelis–Menten experiments to determine DiFMUP Km values for each phosphatase. IC50 values of our inhibitors for PTP1B and STEP were determined in 10-point dose–response assays with DiFMUP used at the concentration corresponding to the respective Km value. […] Other inhibitors with good relative selectivity for SHP2 included SBI-4668 (13-fold selective over PTP1B; 73-fold selective over STEP) and SBI-3404 (fivefold selective over PTP1B; >71-fold selective over STEP).
Recombinant human full-length SHP2 (1–594) WT and E76K mutants, as well as the SHP2cat (248–527), were expressed and purified as described before ([36], [41]). Recombinant human PTP1B (1–300) and the codon-optimized STEP (280–566) catalytic domains were cloned into PET-15b and expressed as N-His-tagged fusion proteins. For expression, transformed BL21(DE3) cells were grown and induced similar as described for SHP2. Collected cells were resuspended in lysis buffer (25 mM Tris, pH 7.5, 300 mM NaCl, 50 mM imidazole, and 10% glycerol) with 100 mg/l RNaseA and were lysed with two passages using a microfluidizer. The lysate was clarified by centrifugation at 15,000g for 50 min and applied to nickel–nitrilotriacetic acid resin. The column resin was washed, and the PTP1B or STEP protein was eluted in lysis buffer at 300 mM imidazole. The PTP1B or STEP protein was further purified by S75 size-exclusion chromatography in 50 mM Tris, pH 7.5, 50 mM NaCl. The eluted peak fractions were supplemented with tris(2-carboxyethyl)phosphine to 10 mM, concentrated by ultrafiltration, and stored at −80 °C. The purified yield of PTP1B was 33 mg/l cell culture; the yield of STEP was 16 mg/l cell culture.
SHP2 inhibitors were tested at RT in a 384-well plate format standard phosphatase fluorescence intensity assay using DiFMUP (Invitrogen/Thermo Fisher Scientific) as a substrate and a total reaction volume of 25 μl. SHP2 inhibitors or vehicle (DMSO) were spotted in triplicate into a black Greiner FLUOTRAC 200 384-well microplate (catalog no.: 781076; Greiner) for a 10-point dose–response assay using an Echo 555 Liquid Handler (Labcyte, Inc). PTP working solutions were prepared at a 0.625 nM concentration (for a final concentration of 0.5 nM) in buffer containing 50 mM Bis–Tris, pH 6.0, 50 mM NaCl, 5 mM DTT, and 0.01% Tween-20. Prior to the assay, a dually phosphorylated IRS-1 peptide (625 nM [500 nM final] ([30])) was added to full-length WT SHP2 working solutions and incubated for 20 min. DiFMUP working solutions at 5× final concentration were prepared in 50 mM Bis–Tris, pH 6.0, 50 mM NaCl, and 0.01% Tween-20. About 20 μl of PTP working solution was dispensed into the microplate and incubated with inhibitor for 20 min at RT. […] The reaction was initiated by addition of 5 μl DiFMUP working solutions. Fluorescence intensity was measured in kinetic mode (every minute for 7 or 10 min) using a Tecan Spark Multimode Microplate Reader (Tecan) with an excitation wavelength of 360 nm and an emission wavelength of 460 nm. The initial rates were determined from the linear progression curves of the PTP reaction. The nonenzymatic hydrolysis of the substrate was corrected by using a control without addition of enzyme. IC50 values were calculated from the corrected initial rates by nonlinear regression using the program GraphPad Prism, version 8 (GraphPad Software, Inc) software. Dose–response inhibition assays of SHP2cat using the substrate OMFP were performed similarly as described previously for DiFMUP. OMFP was used at a concentration corresponding to its Km value for SHP2cat (50 μM final). Fluorescence intensity was measured in kinetic mode (every minute for 10 min) using a Tecan Spark Multimode Microplate Reader with an excitation wavelength of 485 nm and an emission wavelength of 535 nm. […]

In turn, `O=C1CCCC1=Cc1ccc(-c2ccc(O)c(C(=O)Nc3ccccc3)c2)o1` [SBI-3192, 2-Hydroxy-5-(5-((2-oxocyclopentylidene)methyl)furan-2-yl)-N-phenylbenzamide] had an IC50 of 1.9 µM.

As for `O=C(Nc1ccccc1)c1cc(-c2ccc(/C=C3\Sc4ccccc4C3=O)o2)ccc1O` [SBI-4668, (Z)-2-Hydroxy-5-(5-((3-oxobenzo[b]thiophen-2(3H)-ylidene)methyl)furan-2-yl)-N-phenylbenzamide], the IC50 turned out to be 9.4 µM and the “selectivity for SHP2 over PTP1B” value worked out at 13 fold.

Turning to `N#Cc1cc(-c2ccc(/C=C3\Sc4ccccc4C3=O)o2)ccc1O` [SBI-3404, (Z)-2-Hydroxy-5-(5-((3-oxobenzo[b]thiophen-2(3H)-ylidene)methyl)furan-2-yl)benzonitrile], the IC50 turned out to be 7.4 µM and the “selectivity for SHP2 over PTP1B” value is on record as “fivefold”.

In the case of `O=C1/C(=C/c2ccc(-c3ccc(O)c(-c4nn[nH]n4)c3)o2)Sc2ccccc21` [SBI-3405, (Z)-2-((5-(4-Hydroxy-3-(2H-tetrazol-5-yl)phenyl)furan-2-yl)methylene)benzo[b]thiophen-3(2H)-one], the IC50 amounted to 5.3 µM.

Take `Nc1ccc(NC(=O)c2cc(-c3ccc(/C=C4\Sc5ccccc5C4=O)o3)ccc2O)cc1` [SBI-2130, (Z)-N-(4-Aminophenyl)-2-hydroxy-5-(5-((3-oxobenzo[b]thiophen-2(3H)-ylidene)methyl)furan-2-yl)benzamide]: the IC50 is 6.8 µM and the “selectivity for SHP2 over PTP1B” value is 31 fold.
